Laboratory results from patent US5959145A, “Fatty acid analog enzyme substrates” (priority 1993, dated 1999).

How the values were obtained:
[1] = C18 reverse phase HPLC elution of fatty acyl peptides (hydrophobicity); assay type: physicochemical
Description: The fatty acid analog acyl-peptide eluted 7 minutes earlier than the corresponding myristoyl peptide. The free peptide elutes in the void volume (3-5minutes).
This difference was evident when the HPLC elution characteristics of fatty acyl peptides were examined. The elution time of a particular acyl-peptide depends strongly on the peptide sequence as well as on the acyl chain attached to that peptide. For example, the elution times of fatty acyl derivatives of GNAAAARR are (in minutes) decanoic acid, 9; dodecanoic acid, 18; myristic acid, 24; and palmitic acid, 30. Elution times for fatty acyl derivatives of GNAAS[^125 I]YRR are 23 and 28 minutes for C12 and C14 fatty acids, respectively (FIG. 2). […] Such a change could alter the biological activity of myristoyl proteins.
(§1) For these Examples, each analog synthesized is characterized by ^1 H and ^13 C NMR as well as mass spectroscopy. The analogs are then characterized kinetically as NMT substrates. Briefly, fatty acid analogs are converted to their CoA esters with Pseudomonas CoA ligase and incubated with the iodinated peptide GNAAS[^125 I]YRR and a source of NMT. […] The radiolabelled peptide is then used at concentrations which will lead to 50% enzyme saturation (i.e., at its Km) for the determination of fatty acid analog kinetic characteristics. Representative analogs with sulfur or oxygen in the backbone of the fatty acid chain serve as good substrates for NMT in vitro and will compete for incorporation of ^3 H labelled myri-state into yeast proteins in vivo. In addition, these analogs differ markedly in hydrophobicity from myri-state as measured both by C18 reverse phase HPLC elution profiles and by 2-octanol/water partition coefficients. The analog CH3 O(CH2)11 COOH, for example, partitions into water 20 fold better than myristate. It is believed that these analogs will be incorporated into mammalian acylproteins in vivo and that their incorporation into these proteins will drastically alter protein processing or targeting. It is further believed that the incorporation of fatty acid analogs of both myristate and palmitate into ester linked and phosphatidyl inositol glycan linked acylproteins will also dramatically alter their properties. Since many viral proteins and oncogenes are acylated, these compounds represent a new class of potential antiviral and antineoplastic agents.

[2] = molecular target: T1, yeast NMT (Saccharomyces cerevisiae, UniProt P14743); experiment: kinetic characterisation of fatty acid analogs as yeast NMT substrates; assay type: biochemical
T1 construct: 11,000-fold purified preparation of yeast NMT; endogenous in cells; host or cells: yeast (enzyme purified from yeast, 11,000-fold)
T1 sequence (P14743 1-455): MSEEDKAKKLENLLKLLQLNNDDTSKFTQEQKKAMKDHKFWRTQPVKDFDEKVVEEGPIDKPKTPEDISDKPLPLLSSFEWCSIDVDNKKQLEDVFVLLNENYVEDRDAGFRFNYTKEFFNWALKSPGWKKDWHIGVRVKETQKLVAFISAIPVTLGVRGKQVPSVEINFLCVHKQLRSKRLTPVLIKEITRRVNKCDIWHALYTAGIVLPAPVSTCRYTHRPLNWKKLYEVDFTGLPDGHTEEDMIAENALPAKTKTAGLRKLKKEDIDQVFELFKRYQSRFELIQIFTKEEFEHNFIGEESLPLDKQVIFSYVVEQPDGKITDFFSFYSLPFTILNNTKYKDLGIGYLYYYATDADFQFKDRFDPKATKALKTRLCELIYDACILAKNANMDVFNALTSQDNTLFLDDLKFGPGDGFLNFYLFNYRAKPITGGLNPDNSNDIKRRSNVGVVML
Source text: Similar results were obtained using an 11,000-fold purified preparation of yeast NMT [Towler et al., Proc. Natl. Acad. Sci. USA 84, 2708-2712 (1987)].
Other illustrative examples of the oxy- and thio-substituted fatty acid analog substrate compounds of the invention were synthesized in Examples 6 to 14 and tested in Example 15 as substrates for the yeast NMT.
as §1

CCCCCCCCCCCCCC(=O)O [myristic acid, reference compound]
Elution Time ([1]; C18 reverse phase HPLC, acyl derivative of GNAAS[125I]YRR, Table 2): 26 min | elution time of fatty acyl derivative of GNAAAARR ([1]; reverse phase HPLC): 24 min | elution time of fatty acyl derivative of GNAAS[125I]YRR ([1]; reverse phase HPLC, FIG. 2, text): 28 min | Peptide Vm ([2]; peptide GNAAS[125I]YRR varied, fatty acid analog at 15 μM, myristate control = 100%): 100% | Acyl CoA Vm ([2]; radiolabelled peptide at its Km, analog varied, myristate control = 100%): 100% | Km ([2]; radiolabelled peptide at its Km, analog varied, read-out: Acyl CoA Km): 0.6 µM
